# Data published in publication PMC5658448, “From receptor binding kinetics to signal transduction; a missing link in predicting in vivo drug-action” (Scientific Reports, 2017).
# Where two headings read alike, the source gives them in different places.
# Columns and labels:
# [1] = molecular target: T1, NK1 receptor (Homo sapiens, UniProt P25103); experiment: Impedance-based morphology assay (xCELLigence) in U-251 MG cells; type: cell-based; design: host or cells: U-251 MG cells; conditions: for Onset of receptor activation, morphology, NKA / Onset of receptor activation, morphology, SP / decrease of onset of NKA-induced morphological changes / decrease of onset of SP-induced impedance changes: first 8 min; for decrease of onset of NKA-induced morphological changes / decrease of onset of SP-induced impedance changes: antagonist pretreatment; for increase of EC50 value of NKA: xCELLigence, highest antagonist concentration; for IC50: antagonist pre-incubation
# T1 sequence (P25103 whole entry): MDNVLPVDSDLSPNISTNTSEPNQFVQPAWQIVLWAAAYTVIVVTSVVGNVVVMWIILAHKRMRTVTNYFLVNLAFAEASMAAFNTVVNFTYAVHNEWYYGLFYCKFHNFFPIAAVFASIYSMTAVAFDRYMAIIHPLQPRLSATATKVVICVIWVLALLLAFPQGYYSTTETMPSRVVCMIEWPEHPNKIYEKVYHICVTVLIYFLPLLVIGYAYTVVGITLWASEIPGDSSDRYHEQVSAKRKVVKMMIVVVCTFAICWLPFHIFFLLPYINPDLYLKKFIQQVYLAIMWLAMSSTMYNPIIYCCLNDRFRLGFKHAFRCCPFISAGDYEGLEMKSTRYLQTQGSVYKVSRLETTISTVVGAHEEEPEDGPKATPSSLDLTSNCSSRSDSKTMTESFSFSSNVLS
# Procedure: Label-free morphology assays were performed using the xCELLigence RTCA system as described previously[27],[42].
# (§1) The onset of receptor activation was analyzed by calculating the slope with linear regression of the first 8 minutes of the cellular response.2 onset=Δcellularresponse/Δtime
# [2] = molecular target: T1, NK1 receptor; design: host or cells: U-251 MG cells; conditions: room temperature; cited from earlier work
# [3] = molecular target: human neurokinin 1 receptor (Homo sapiens, UniProt P25103); experiment: Real-time cAMP accumulation assay (GloSensor) in CHOhNK1 cells; type: cell-based; conditions: for type of antagonism (insurmountability): antagonist pre-incubation before SP or NKA, cAMP and morphology assays; for decrease of onset of NKA-induced cAMP production: antagonist pretreatment
# human neurokinin 1 receptor, sequence (P25103 whole entry): as above
# Procedure: Real-time cAMP production was measured using the life cell cAMP GloSensor^TM assay[11],[12]. The technology is based on a cAMP-biosensor, which undergoes a conformational change upon cAMP binding, followed by the turnover of Luciferin.
# CHOhNK1 cells were transiently transfected with the pGloSensor™-22F cAMP (6 ng/µL) plasmid using FuGene HD (3 µL:1 µg DNA plasmid) as a transfection reagent. Accordingly, cells were harvested and reconstituted to 0.5 × 10^6 cells/ml (10,000 cells/well) in DMEM/F-12/ HEPES supplemented with 1% FCS, 2 mM glutamine and 1 mg/ml G418. The diluted plasmid solution was combined with the transfection reagent and incubated for 20 min at room temperature. Subsequently, the transfection mixture and cell solution were mixed for additional 5 min before plating in 384-well plates. The transfected cells were incubated for 24 h at 37 °C + 5% CO2 followed by treatment with Glo-substrate (3% v/v) for 2 h at room temperature. […] Real-time changes in the level of cAMP were detected using an Envision HTS microplate reader 2103 (PerkinElmer).
# as §1
# [4] = molecular target: T1, NK1 receptor; experiment: Dual-point competition association assay (kinetic rate index); type: binding; conditions: 4 °C; Bt1 (30 min)/Bt2 (120 min); vs radioligand [3H][Sar9,Met(O2)11]SP
# Procedure: Dual-point competition association assays were performed as prescribed previously, following the radioligand binding protocol of Nederpelt et al.[27].
# Data from dual-point competition association assays were analyzed by dividing the specific binding at t1 (Bt1) with the specific binding at t2 (Bt2).1 KRI=Bt1/Bt2 Data from morphology and cAMP experiments were analyzed as described previously. […] Results were normalized to the maximal response induced by agonist without antagonist.
# [5] = molecular target: T1, NK1 receptor; experiment: Radioligand binding affinity at the NK1 receptor ([3H][Sar9,Met(O2)11]SP, CHOhNK1 membranes)
# [6] = molecular target: T1, NK1 receptor; design: host or cells: U-251 MG cells; conditions: cited from earlier work
# [7] = molecular target: T1, NK1 receptor; design: host or cells: U-251 MG cells; conditions: agonist alone; normalized to NKA only; cited from earlier work
# [8] = NKA after 0.07 nM antagonist, first 8 min
# [9] = NKA after 0.21 nM antagonist, first 8 min
# [10] = NKA after 0.7 nM antagonist, first 8 min
# [11] = SP after 0.07 nM antagonist, first 8 min
# [12] = SP after 0.21 nM antagonist, first 8 min
# [13] = SP after 0.7 nM antagonist, first 8 min
# [14] = NKA after 0.07 nM antagonist, normalized to NKA only
# [15] = NKA after 0.21 nM antagonist, normalized to NKA only
# [16] = NKA after 0.7 nM antagonist, normalized to NKA only
# [17] = SP after 0.07 nM antagonist, normalized to SP only
# [18] = SP after 0.21 nM antagonist, normalized to SP only
# [19] = SP after 0.7 nM antagonist, normalized to SP only
smiles,measurement,setting,value
"C[C@@H](O[C@H]1OCCN(Cc2n[nH]c(=O)[nH]2)[C@H]1c1ccc(F)cc1)c1cc(C(F)(F)F)cc(C(F)(F)F)c1 [Aprepitant, aprepitant]","Onset of receptor activation, morphology, NKA",[1]; NKA after 0.07 nM antagonist,0.05 ± 0.011^NS NCI min^−1
same,"Onset of receptor activation, morphology, NKA",[1]; NKA after 0.21 nM antagonist,0.03 ± 0.007^NS NCI min^−1
same,"Onset of receptor activation, morphology, NKA",[1]; NKA after 0.7 nM antagonist,0.006 ± 0.003 NCI min^−1
same,"Onset of receptor activation, morphology, SP",[1]; SP after 0.07 nM antagonist,0.05 ± 0.002^NS NCI min^−1
same,"Onset of receptor activation, morphology, SP",[1]; SP after 0.21 nM antagonist,0.04 ± 0.006^NS NCI min^−1
same,"Onset of receptor activation, morphology, SP",[1]; SP after 0.7 nM antagonist,0.009 ± 0.003 NCI min^−1
same,Emax,"[1]; U-251, SP after 0.07 nM antagonist, normalized to SP only, read-out: Emax morphology SP",96 ± 7.6%
same,Emax,"[1]; U-251, SP after 0.21 nM antagonist, normalized to SP only, read-out: Emax morphology SP",79 ± 5%
same,Emax,"[1]; U-251, SP after 0.7 nM antagonist, normalized to SP only, read-out: Emax morphology SP",53 ± 8.5%
same,Emax,"[1]; U-251, read-out: Emax morphology NKA, NKA after 0.07 nM antagonist, normalized to NKA only",97 ± 2.3%
same,Emax,"[1]; U-251, read-out: Emax morphology NKA, NKA after 0.21 nM antagonist, normalized to NKA only",79 ± 10%
same,Emax,"[1]; U-251, read-out: Emax morphology NKA, NKA after 0.7 nM antagonist, normalized to NKA only",30 ± 6.2%
same,decrease of onset of NKA-induced morphological changes,[1],8 fold
same,decrease of onset of SP-induced impedance changes,[1],5 fold
same,increase of EC50 value of NKA,[1],7 fold
same,receptor dissociation rate,[2],0.0054 min⁻¹
same,"Onset of receptor activation, cAMP, NKA",[3]; [8],75 ± 13^NS RLU min^−1
same,"Onset of receptor activation, cAMP, NKA",[3]; [9],43 ± 7.7 RLU min^−1
same,"Onset of receptor activation, cAMP, NKA",[3]; [10],9.7 ± 1.6 RLU min^−1
same,"Onset of receptor activation, cAMP, SP",[3]; [11],94 ± 13 RLU min^−1
same,Emax,"[3]; SP after 0.07 nM antagonist, normalized to SP only, read-out: Emax cAMP SP",62 ± 5.7%
same,"Onset of receptor activation, cAMP, SP",[3]; [12],63 ± 17 RLU min^−1
same,Emax,"[3]; SP after 0.21 nM antagonist, normalized to SP only, read-out: Emax cAMP SP",55 ± 15%
same,"Onset of receptor activation, cAMP, SP",[3]; [13],36 ± 7 RLU min^−1
same,Emax,"[3]; SP after 0.7 nM antagonist, normalized to SP only, read-out: Emax cAMP SP",19 ± 5.5%
same,type of antagonism (insurmountability),[3],fully insurmountable
same,decrease of onset of SP-induced cAMP production,"[3]; antagonist pre-incubation, first 8 min",up to 6 fold
same,decrease of onset of NKA-induced cAMP production,[3]; first 8 min,15 fold
same,decrease of potency of NKA,[3]; cAMP assay,10 fold
same,Emax,"[3]; cAMP assay, highest antagonist concentration, read-out: decrease of Emax of SP in comparison to control",> 80%
same,Emax,"[3]; read-out: Emax cAMP NKA, NKA after 0.07 nM antagonist, normalized to NKA only",71 ± 13%
same,Emax,"[3]; read-out: Emax cAMP NKA, NKA after 0.21 nM antagonist, normalized to NKA only",43 ± 19%
same,Emax,"[3]; read-out: Emax cAMP NKA, NKA after 0.7 nM antagonist, normalized to NKA only",7.8 ± 4.2%
"C[C@@H](O[C@H]1OCCN(Cc2n[nH]c(=O)[nH]2)[C@H]1c1ccccc1)c1cc(C(F)(F)F)cc(C(F)(F)F)c1 [DFA, desfluoro aprepitant]",KRI (kinetic rate index),[4],1.0 ± 0.13
same,"Onset of receptor activation, morphology, NKA",[1]; NKA after 0.07 nM antagonist,0.06 ± 0.005^NS NCI min^−1
same,Emax morphology NKA,[1]; [14],109 ± 7.6^NS %
same,"Onset of receptor activation, morphology, NKA",[1]; NKA after 0.21 nM antagonist,0.05 ± 0.007^NS NCI min^−1
same,Emax morphology NKA,[1]; [15],108 ± 6.7^NS %
same,"Onset of receptor activation, morphology, NKA",[1]; NKA after 0.7 nM antagonist,0.04 ± 0.014^NS NCI min^−1
same,Emax morphology NKA,[1]; [16],81 ± 8.9 %
same,"Onset of receptor activation, morphology, SP",[1]; SP after 0.07 nM antagonist,0.06 ± 0.006^NS NCI min^−1
same,Emax morphology SP,[1]; [17],97 ± 5.6^NS %
same,"Onset of receptor activation, morphology, SP",[1]; SP after 0.21 nM antagonist,0.05 ± 0.006^NS NCI min^−1
same,Emax morphology SP,[1]; [18],104 ± 4.2^NS %
same,"Onset of receptor activation, morphology, SP",[1]; SP after 0.7 nM antagonist,0.03 ± 0.005 NCI min^−1
same,Emax morphology SP,[1]; [19],82 ± 6.9 %
same,EC50,"[1]; SP after 30 min pre-incubation with 0.07 nM antagonist, read-out: EC50 morphology SP",0.053 ± 0.02 nM
same,EC50,"[1]; SP after 30 min pre-incubation with 0.21 nM antagonist, read-out: EC50 morphology SP",0.06 ± 0.015 nM
same,EC50,"[1]; SP after 30 min pre-incubation with 0.7 nM antagonist, read-out: EC50 morphology SP",3 ± 1.3 nM
same,IC50,"[1]; then EC80 concentration of NKA, read-out: IC50 (morphology)",0.12 ± 0.006 nM
same,IC50,"[1]; then EC80 concentration of SP, read-out: IC50 (morphology assay)",0.22 ± 0.1 nM
same,decrease of onset of NKA-induced morphological changes,[1],did not significantly decrease
same,decrease of onset of SP-induced impedance changes,[1],less significant
same,EC50,"[1]; read-out: EC50 morphology NKA, NKA after 30 min pre-incubation with 0.07 nM antagonist",3 ± 0.52 nM
same,EC50,"[1]; read-out: EC50 morphology NKA, NKA after 30 min pre-incubation with 0.21 nM antagonist",3.3 ± 0.45 nM
same,EC50,"[1]; read-out: EC50 morphology NKA, NKA after 30 min pre-incubation with 0.7 nM antagonist",8.5 ± 0.46 nM
same,increase of EC50 value of NKA,[1],2 fold
same,"Onset of receptor activation, cAMP, NKA",[3]; [8],98 ± 29^NS RLU min^−1
same,Emax cAMP NKA,[3]; [14],84 ± 18^NS %
same,"Onset of receptor activation, cAMP, NKA",[3]; [9],98 ± 33^NS RLU min^−1
same,Emax cAMP NKA,[3]; [15],67 ± 10 %
same,"Onset of receptor activation, cAMP, NKA",[3]; [10],71 ± 22^NS RLU min^−1
same,Emax cAMP NKA,[3]; [16],61 ± 15 %
same,"Onset of receptor activation, cAMP, SP",[3]; [11],125 ± 31^NS RLU min^−1
same,Emax cAMP SP,[3]; [17],78 ± 4.5 %
same,"Onset of receptor activation, cAMP, SP",[3]; [12],120 ± 27^NS RLU min^−1
same,Emax cAMP SP,[3]; [18],75 ± 7.7 %
same,"Onset of receptor activation, cAMP, SP",[3]; [13],158 ± 26^NS RLU min^−1
same,Emax cAMP SP,[3]; [19],61 ± 10 %
same,EC50,"[3]; SP after 30 min pre-incubation with 0.07 nM antagonist, read-out: EC50 cAMP SP",1.9 ± 0.5 nM
same,EC50,"[3]; SP after 30 min pre-incubation with 0.21 nM antagonist, read-out: EC50 cAMP SP",2.7 ± 0.8 nM
same,EC50,"[3]; SP after 30 min pre-incubation with 0.7 nM antagonist, read-out: EC50 cAMP SP",2.3 ± 0.7 nM
same,type of antagonism (insurmountability),[3],partially insurmountable
same,IC50,"[3]; antagonist pre-incubation, then EC80 concentration of NKA, read-out: IC50 (cAMP)",0.26 ± 0.08 nM
same,IC50,"[3]; antagonist pre-incubation, then EC80 concentration of SP, read-out: IC50 (cAMP assay)",0.15 ± 0.02 nM
same,decrease of onset of NKA-induced cAMP production,[3]; first 8 min,did not significantly decrease
same,decrease of potency of NKA,[3]; cAMP assay,did not affect
same,decrease of Emax of SP in comparison to control,"[3]; cAMP assay, highest antagonist concentration",39%
same,EC50,"[3]; read-out: EC50 cAMP NKA, NKA after 30 min pre-incubation with 0.07 nM antagonist",399 ± 19 nM
same,EC50,"[3]; read-out: EC50 cAMP NKA, NKA after 30 min pre-incubation with 0.21 nM antagonist",304 ± 89 nM
same,EC50,"[3]; read-out: EC50 cAMP NKA, NKA after 30 min pre-incubation with 0.7 nM antagonist",1080 ± 356 nM
same,pKi,[5],9.3 ± 0.04
Cc1ccccc1-c1cc(N2CCN(C)CC2)ncc1N(C)C(=O)C(C)(C)c1cc(C(F)(F)F)cc(C(F)(F)F)c1 [netupitant],type of antagonism,[6],insurmountable
"CSCC[C@H](NC(=O)[C@H](CC(C)C)NC(=O)CNC(=O)[C@@H](NC(=O)[C@H](Cc1ccccc1)NC(=O)[C@H](CO)NC(=O)[C@H](CC(=O)O)NC(=O)[C@@H](NC(=O)[C@H](CCCCN)NC(=O)[C@@H](N)Cc1c[nH]cn1)[C@@H](C)O)C(C)C)C(N)=O [NKA, neurokinin A]",Emax morphology NKA,[7],100 ± 0.44 %
"O=c1[nH]nc(CN2CCO[C@H](OCc3cc(C(F)(F)F)cc(C(F)(F)F)c3)[C@@H]2c2ccccc2)[nH]1 [L-742,694]",effect on Emax of SP after pre-incubation,[6],clear decrease
